Reference: patent publication US12246081B2, “Deodorant compositions” (Conopco, Inc., priority 2017, dated 2025)

Test system: S. hominis B10 C-S β lyase
Assay: Transformation of Cys-3M3SH to 3M3SH by purified S. hominis B10 C-S β lyase
Format: biochemical, Staphylococcus hominis
Conditions: for % inhibition: 2 mM Cys-3M3SH, 35° C. for 24 hours, relative to control without compound; for susceptibility of S. hominis C-S β-lyase to inhibition by classical inhibitors: qualitative statement, no concentration given
From the text: The compounds identified by present invention represent a new class of deodorant actives that can be screened by the method disclosed herein. The method uses an odour-generating C-S β-lyase, in particular S. hominis B10 C-S β-lyase. In accordance with the procedure detailed in Example 1, the medium of the screening method comprises a 20 millimolar concentration of the compound to be screened. The medium further comprises S. hominis C-S β-lyase enzyme and 2 millimolar Cys-3M3SH. Following an incubation at 35° C. for a period of 24 hours, the reduction in 3M3SH released by S. hominis C-S β-lyase from Cys-3M3SH is measured. Herein, the inhibition of 3M3SH level is relative to a control without any compound being screened. In preferred embodiments, following the procedure detailed in Example 1, the medium comprises a 10 millimolar concentration of compound to be screened. In further preferred embodiments, the concentration of the compound to be screened can be 5 millimolar, preferably 2 millimolar, more preferably 1 millimolar, most preferably 0.5 millimolar.
The deodorant actives affecting S. hominis C-S β lyase are identified by using the following procedure. The Cys-3M3SH used in the procedure may be obtained using a method described in Chem. Biodivers., 2, 2005, 705-716. The purified S. hominis B10 C-S β lyase was prepared by cloning the gene encoding this enzyme into Escherichia coli using methodology known in the art. Recombinant S. hominis B10 C-S β-lyase was then expressed in E. coli and purified by immobilised metal ion affinity chromatography. M9 salts are mixtures of 6 g/L Na2HPO4, 3 g/L KH2PO4, 0.5 g/L NaCl, adjusted to pH 7.0 with NaOH.
Glass reaction tubes were set up, each containing 2 mM Cys-3M3SH (dissolved in M9 salts), 50 μM pyridoxal phosphate, purified S. hominis B10 C-S β lyase to a final concentration of 10 μg/ml, and M9 salts (or, where appropriate, a test material dissolved in M9 salts at, for example, 20 mM) to adjust the volume to 500 μl. Enzyme only (C-S beta-lyase) and substrate only (Cys-3M3SH) reactions were also included in each experiment. The reactions were incubated with shaking at 35° C. for 24 hours. To measure released 3M3SH, each reaction vial was first centrifuged at 13,000 rpm for 2 minutes. A volume of 0.095 ml labelling solution, consisting of 0.080 ml dH2O, 0.010 ml Tris (pH 8.0) and 0.005 ml 5,5′-dithiobis-(2-nitrobenzoic acid) (DTNB) stock solution (50 mM sodium acetate, 2 mM DTNB, dissolved in dH2O) was added to each well of a micro-titre plate. 0.005 ml of each reaction supernatant was added to the wells of the micro-titre plate, which was then incubated at room temperature for 5 minutes. Absorbance (A412) values, which correlate with the concentration of 3M3SH present, were recorded using a spectrophotometer. […] In these cases, a HPLC analysis was carried out according to the methodology described in J. Pharm. Biomed. Anal. 2008; 48:1375-80 and FEMS Microbiol. Lett., 263(16), 2015, fnv111.

[1] = material concentration = 2 millimolar
[2] = material concentration = 20 millimolar

| Compound | % inhibition [1] [%] | % inhibition [2] [%] | % inhibition (material concentration = 2 millimolar, listed as Cl) | susceptibility of S. hominis C-S β-lyase to inhibition by classical inhibitors |
| --- | --- | --- | --- | --- |
| 1,8-Dioxa-4-azaspiro[4.5]decane-3-carboxylic acid(N-CBz protected) [EX17] | 54.1 | – | – | – |
| 1-oxa-4-azaspiro[4.5]decane-3-carboxylic acid(N-CBz protected) [EX16] | 30.3 | – | – | – |
| 2-(2-furyl)1,3-thiazolide-4-carboxylic acid [EX4] | 20.8 | 80.4 | – | – |
| N[C@H](COCc1ccccc1)C(=O)O [C1, O-benzyl-D-serine, reference compound] | 0 | 8.2 | does not present significant reduction of malodour | – |
| COc1ccc(C2NC(C(=O)O)CS2)cc1O (stereo not shown) [EX1, 2-(3-hydroxy-4-methoxy-phenyl)-thiazolidine-4-carboxylic acid] | 34.9 | 100 | – | – |
| COc1cc(C2NC(C(=O)O)CS2)ccc1O (stereo not shown) [EX2, 2-(4-hydroxy-3-methoxyphenyl)-1,3-thiazolidine-4-carboxylic acid] | 32.9 | 100 | – | – |
| O=C(O)C1CSC2(CCC3(CC2)OCCO3)N1 (stereo not shown) [EX3, 1,4-dioxa-9-thia-12-azadispirol[4.2.4.2]tetradecane-11-carboxylic acid] | 32.3 | 80.6 | – | – |
| CCC(CC)C1NC(C(=O)O)CS1 (stereo not shown) [EX5, 2-(1-ethylpropyl)-4-thiazolidine-4-carboxylic acid] | 46 | 94.1 | – | – |
| O=C(O)C1CSC2(CCCCC2)N1 (stereo not shown) [EX6, 1-thia-4-azaspiro[4.5]decane-3-carboxylic acid] | 90.9 | 100 | – | – |
| O=C(O)C1CSC2(CCN(Cc3ccccc3)CC2)N1 (stereo not shown) [EX7, 8-benzyl-1-thia-4,8-diazaspiro[4.5]decane-3-carboxylic acid] | 11.9 | 87.8 | – | – |
| O=C(O)C1CSC(c2ccccc2)N1 (stereo not shown) [EX8, 2-phenylthiazolidine-4-carboxylic acid] | 12.3 | 95.9 | – | – |
| C=CCOc1ccc(C2NC(C(=O)O)CS2)cc1 (stereo not shown) [EX9, 2-(4-(allyloxy)phenyl)-1,3-thiazolidine-4-carboxylic acid] | 39.7 | 100 | – | – |
| COc1ccc(C2NC(C(=O)O)CS2)cc1 (stereo not shown) [EX10, 2-(4-methoxyphenyl)-1,3-thiazolidine-4-carboxylic acid] | 24.5 | 88.2 | – | – |
| CCCCCCC1NC(C(=O)O)CS1 (stereo not shown) [EX11, 2-hexyl-1,3-thiazolane-4-carboxylic acid] | 87.5 | 100 | – | – |
| O=C(O)C1CSC(c2ccccc2O)N1 (stereo not shown) [EX12, 2-(2-hydroxy-pheny)-thiazolidine-4-carboxylic acid] | 46.5 | 100 | – | – |
| N[C@H]1CONC1=O [L-cycloserine, reference compound] | – | – | – | much less susceptible to inhibition |
| NOCC(=O)O [aminooxyacetic acid, reference compound] | – | – | – | much less susceptible to inhibition |
